Experimental data: patent US11319321B2, “[1,2,4]triazolo[1,5-a]pyrimidine compounds as PDE2 inhibitors” (Janssen Pharmaceutica NV, priority 2016, dated 2022)
Where two headings read alike, the source gives them in different places.

Experiments:
[1] = biological target: T1, Human recombinant PDE2A (hPDE2A) (Homo sapiens, UniProt O00408); assay: In vitro assay PDE2A (SPA, 3H-cGMP); assay type: biochemical
T1 construct: made in house; host or cells: Sf9 insect cells (baculovirus)
Experimental: Human recombinant PDE2A (hPDE2A) was expressed in Sf9 cells using a recombinant rPDE10A baculovirus construct. Cells were harvested after 48 h of infection and the hPDE2A protein was purified by metal chelate chromatography on Ni-sepharose 6FF. Tested compounds were dissolved and diluted in 100% DMSO to a concentration 100 fold of the final concentration in the assay. Compound dilutions (0.4 μl) were added in 384 well plates to 20 μl of incubation buffer (50 mM Tris pH 7.8, 8.3 mM MgCl2, 1.7 mM EGTA). 10 μl of hPDE2A enzyme in incubation buffer was added and the reaction was started by addition of 10 μl substrate to a final concentration of 10 μM cGMP and 0.01 μCi ^3H-cGMP. The reaction was incubated for 45 minutes at room temperature. […] After sedimentation of the beads during 30 minutes the radioactivity was measured in a Perkin Elmer Topcount scintillation counter and results were expressed as cpm. For blanc values the enzyme was omitted from the reaction and replaced by incubation buffer. Control values were obtained by addition of a final concentration of 1% DMSO instead of compound.

hPDE3B = assay: In vitro assay PDE3 (SPA, 3H-cAMP); assay type: biochemical, human; details: 0.4 μM cAMP substrate; for hPDE3B Emax: in % (unit assumed)
hPDE10A2 = hPDE10A2 (Homo sapiens, UniProt Q9Y233); assay: biochemical; details: 60 nM cAMP substrate; for IC50: read-out: hPDE10A2 or rPDE10A2 pIC50 (converted); for Emax: read-out: hPDE10A2 or rPDE10A2 Emax, human clone
Experimental: (§1) Rat recombinant PDE10A (rPDE10A2) was expressed in Sf9 cells using a recombinant rPDE10A baculovirus construct. Cells were harvested after 48 h of infection and the rPDE10A protein was purified by metal chelate chromatography on Ni-sepharose 6FF. Tested compounds were dissolved and diluted in 100% DMSO to a concentration 100 fold of the final concentration in the assay. Human recombinant PDE10A ([…]) was expressed in Sf9 cells using a recombinant hPDE10A baculovirus that was made and amplified in house. Cells were harvested after 72 h of infection and the hPDE10A protein was purified by metal chelate chromatography on Ni-sepharose. Compound dilutions (0.4 μl) were added in 384 well plates to 20 μl of incubation buffer (50 mM Tris pH 7.8, 8.3 mM MgCl2, 1.7 mM EGTA). 10 μl of rPDE10A or hPDE10A enzyme in incubation buffer was added and the reaction was started by addition of 10 μl substrate to a final concentration of 60 nM cAMP and […] ^3H-cAMP. The reaction was incubated for 60 minutes at room temperature. After incubation, the reaction was stopped with 20 μl of stop solution consisting of 17.8 mg/ml PDE SPA (scintillation proximity assay) beads. After sedimentation of the beads during 30 minutes the radioactivity was measured in a Perkin Elmer Topcount scintillation counter and results were expressed as cpm. For blanc values the enzyme was omitted from the reaction and replaced by incubation buffer. Control values were obtained by addition of a final concentration of 1% DMSO instead of compound. A best fit curve is fitted by a minimum sum of squares method to the plot of % of control value substracted with blanc value versus compound concentration and the half maximal inhibitory concentration (IC50) value is derived from this curve.

PDE2A = biological target: T2, PDE2A (Rattus norvegicus, UniProt Q01062); assay: PDE2 occupancy by ex-vivo autoradiography with [3H]B-17a; assay type: in vivo; details: read-out: PDE2 occupancy at 10 mg/kg
T2 construct: Twenty μm-thick striatal sections were cut; from tissue; host or cells: rat brain, striatal sections
T2 sequence (Q01062 1-928): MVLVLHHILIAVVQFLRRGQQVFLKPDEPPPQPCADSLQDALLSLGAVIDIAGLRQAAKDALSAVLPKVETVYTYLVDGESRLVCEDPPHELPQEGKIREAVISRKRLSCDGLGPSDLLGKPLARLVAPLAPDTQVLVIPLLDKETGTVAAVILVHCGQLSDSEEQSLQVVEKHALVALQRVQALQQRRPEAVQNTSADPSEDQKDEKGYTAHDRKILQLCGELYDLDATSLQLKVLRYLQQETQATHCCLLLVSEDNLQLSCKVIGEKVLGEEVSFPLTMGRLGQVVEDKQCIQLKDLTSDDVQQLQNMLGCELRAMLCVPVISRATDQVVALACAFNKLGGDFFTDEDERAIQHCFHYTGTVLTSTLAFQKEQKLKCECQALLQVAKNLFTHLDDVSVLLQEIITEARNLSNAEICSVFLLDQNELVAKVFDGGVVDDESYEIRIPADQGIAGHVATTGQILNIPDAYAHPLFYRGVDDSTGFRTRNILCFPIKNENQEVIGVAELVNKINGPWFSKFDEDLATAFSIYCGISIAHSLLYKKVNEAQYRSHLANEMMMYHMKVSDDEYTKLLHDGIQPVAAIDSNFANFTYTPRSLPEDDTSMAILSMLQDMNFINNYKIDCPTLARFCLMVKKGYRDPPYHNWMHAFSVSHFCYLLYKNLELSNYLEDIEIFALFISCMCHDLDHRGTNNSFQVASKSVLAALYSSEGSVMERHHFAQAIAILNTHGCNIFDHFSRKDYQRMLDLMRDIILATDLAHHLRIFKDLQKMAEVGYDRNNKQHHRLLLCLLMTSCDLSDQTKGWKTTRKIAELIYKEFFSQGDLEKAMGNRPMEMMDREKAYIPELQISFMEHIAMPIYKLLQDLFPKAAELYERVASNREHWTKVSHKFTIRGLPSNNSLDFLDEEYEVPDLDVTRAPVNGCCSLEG
Experimental: Brains were immediately removed from the skull and rapidly frozen in dry-ice cooled 2-methylbutane (−40° C.).
After thawing, sections were dried under a cold stream of air and incubated for one minute with 30 nM [^3H]B-17a in Tris-HCl (50 mM, pH7.4) containing 0.3% BSA. Brain sections from drug-treated and vehicle-treated animals were incubated in parallel. […] After incubation, the excess of [^3H]B-17a was washed off in ice-cold buffer 2 times 10 minutes, followed by a quick dip in distilled water. The sections were then dried under a stream of cold air.
Brain sections were loaded in a […] (Biospace, Paris) for 4 h and radioactivity emerging from delineated brain area was quantified using the Beta vision program (Biospace, Paris). Specific binding was determined as the difference between total binding in the striatum and non-specific binding in the cerebellum. Percentage receptor occupancy of the drug administered to the animal corresponded to 100% minus the percentage receptor labeled in the treated animal. For the determination of ED50-values, the percentage of receptor occupancy was plotted against dose and the sigmoidal log dose-effect curve of best fit was calculated by non-linear regression analysis, using the GraphPad Prism program.

rPDE10A2 = biological target: T3, rPDE10A2 (Rattus norvegicus, UniProt Q9QYJ6); assay: In vitro assay PDE10A, rat clone (SPA, 3H-cAMP); assay type: biochemical; details: for IC50: rat clone (r), 60 nM cAMP substrate, read-out: hPDE10A2 or rPDE10A2 pIC50 (converted); for Emax: read-out: hPDE10A2 or rPDE10A2 Emax
T3 construct: made in house; host or cells: Sf9 insect cells (baculovirus)
T3 sequence (Q9QYJ6 1-794): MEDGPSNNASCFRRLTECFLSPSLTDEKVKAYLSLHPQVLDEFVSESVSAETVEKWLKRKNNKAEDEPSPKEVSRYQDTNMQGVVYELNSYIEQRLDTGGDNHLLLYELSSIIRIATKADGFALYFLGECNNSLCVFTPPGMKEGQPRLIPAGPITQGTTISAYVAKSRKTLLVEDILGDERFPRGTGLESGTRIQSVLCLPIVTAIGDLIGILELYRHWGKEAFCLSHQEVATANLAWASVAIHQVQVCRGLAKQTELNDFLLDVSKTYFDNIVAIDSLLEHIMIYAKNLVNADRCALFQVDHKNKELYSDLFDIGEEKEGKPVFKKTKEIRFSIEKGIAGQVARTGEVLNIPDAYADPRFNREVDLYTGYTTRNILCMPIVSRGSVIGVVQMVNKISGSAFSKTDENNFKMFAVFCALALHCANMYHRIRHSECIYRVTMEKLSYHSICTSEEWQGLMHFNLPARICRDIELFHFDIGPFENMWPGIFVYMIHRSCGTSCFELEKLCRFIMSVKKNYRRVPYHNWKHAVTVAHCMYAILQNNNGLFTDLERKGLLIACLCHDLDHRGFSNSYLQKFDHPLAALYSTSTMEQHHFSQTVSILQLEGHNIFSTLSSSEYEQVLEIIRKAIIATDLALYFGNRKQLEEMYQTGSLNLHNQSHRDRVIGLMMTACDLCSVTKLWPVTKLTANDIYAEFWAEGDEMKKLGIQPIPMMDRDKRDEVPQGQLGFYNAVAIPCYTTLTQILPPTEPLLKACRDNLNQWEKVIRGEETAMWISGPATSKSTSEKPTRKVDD
Experimental: as §1

[2] = hPDE2A pIC50, 10 μM cGMP substrate
[3] = male Wistar rats, 10 mg/kg SC (subcutaneous), striatum, percentage occupancy

Chain of hPDE10A2 (Q9Y233 267-1055): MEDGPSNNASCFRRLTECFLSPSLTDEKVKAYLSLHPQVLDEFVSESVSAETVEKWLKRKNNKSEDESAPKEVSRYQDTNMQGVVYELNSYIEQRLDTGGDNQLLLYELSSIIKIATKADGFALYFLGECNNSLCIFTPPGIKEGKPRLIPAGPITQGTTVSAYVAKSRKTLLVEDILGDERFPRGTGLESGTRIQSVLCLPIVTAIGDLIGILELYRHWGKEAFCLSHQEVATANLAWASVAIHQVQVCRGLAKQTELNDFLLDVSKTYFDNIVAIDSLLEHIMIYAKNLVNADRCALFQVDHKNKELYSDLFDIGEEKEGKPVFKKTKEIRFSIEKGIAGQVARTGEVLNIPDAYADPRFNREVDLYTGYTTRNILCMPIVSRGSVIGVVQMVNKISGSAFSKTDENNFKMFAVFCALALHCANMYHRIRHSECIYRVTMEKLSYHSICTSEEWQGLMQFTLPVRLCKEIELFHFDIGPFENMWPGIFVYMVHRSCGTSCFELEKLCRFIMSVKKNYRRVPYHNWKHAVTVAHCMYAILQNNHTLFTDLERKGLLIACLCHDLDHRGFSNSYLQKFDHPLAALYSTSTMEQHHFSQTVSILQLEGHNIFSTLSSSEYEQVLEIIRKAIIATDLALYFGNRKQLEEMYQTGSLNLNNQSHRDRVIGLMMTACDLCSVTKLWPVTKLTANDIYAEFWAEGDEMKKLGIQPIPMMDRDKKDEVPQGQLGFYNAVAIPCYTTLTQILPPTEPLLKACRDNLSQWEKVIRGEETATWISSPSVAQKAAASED
T1 sequence (O00408 whole entry): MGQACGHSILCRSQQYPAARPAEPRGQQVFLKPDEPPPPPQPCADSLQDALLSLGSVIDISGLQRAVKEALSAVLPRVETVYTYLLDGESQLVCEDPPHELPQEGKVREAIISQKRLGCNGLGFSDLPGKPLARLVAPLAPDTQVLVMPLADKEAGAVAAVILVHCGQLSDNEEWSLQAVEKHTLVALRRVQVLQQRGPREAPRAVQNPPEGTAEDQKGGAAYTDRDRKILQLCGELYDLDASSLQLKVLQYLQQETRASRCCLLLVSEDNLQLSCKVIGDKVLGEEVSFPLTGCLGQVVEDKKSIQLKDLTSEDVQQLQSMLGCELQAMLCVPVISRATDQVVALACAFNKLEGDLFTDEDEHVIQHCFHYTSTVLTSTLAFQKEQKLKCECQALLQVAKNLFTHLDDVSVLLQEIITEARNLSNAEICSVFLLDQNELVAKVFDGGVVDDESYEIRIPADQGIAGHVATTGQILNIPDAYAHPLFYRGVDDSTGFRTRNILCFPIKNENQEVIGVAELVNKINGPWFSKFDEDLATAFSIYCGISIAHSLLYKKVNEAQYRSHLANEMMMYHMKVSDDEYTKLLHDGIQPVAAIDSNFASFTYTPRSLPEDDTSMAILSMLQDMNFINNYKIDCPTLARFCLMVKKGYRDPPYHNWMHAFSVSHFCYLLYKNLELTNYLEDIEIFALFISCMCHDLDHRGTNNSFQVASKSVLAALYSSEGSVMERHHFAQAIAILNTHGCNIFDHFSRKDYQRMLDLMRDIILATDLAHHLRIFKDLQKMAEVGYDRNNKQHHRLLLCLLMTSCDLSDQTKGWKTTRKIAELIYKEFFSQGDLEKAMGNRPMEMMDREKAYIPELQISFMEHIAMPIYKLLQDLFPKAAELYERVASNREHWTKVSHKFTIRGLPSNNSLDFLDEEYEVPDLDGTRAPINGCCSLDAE

Row | Compound | melting point | Emax ([1]; 10 μM cGMP substrate) | IC50 [1, 2] | hPDE3B pIC50 (hPDE3B) | hPDE3B Emax (hPDE3B) | IC50 (hPDE10A2; human clone) | Emax (hPDE10A2) | receptor occupancy at 10 mg/kg (PDE2A; [3]) | hPDE2A Emax ([1]; 10 μM cGMP substrate) | hPDE10A2 or rPDE10A2 Emax (hPDE10A2; human clone) | IC50 (rPDE10A2) | Emax (rPDE10A2) | IC50 [1] | receptor occupancy at 10 mg/kg (PDE2A; po)
1 | Cc1cc(C(C)N2CC[C@@H](C)[C@H](c3cc(C(F)F)nc4ncnn34)C2)cc(C)n1 (single isomer, unassigned) [Compound 1a, 5-(difluoromethyl)-7-[(3 S,4R)-1-[(1R*)-1-(2,6-dimethyl-4-pyridyl)ethyl]-4-methyl-3-piperidyl]-[1,2,4]triazolo[1,5-a]pyrimidine] | 141.46 °C | 99% | 102 nM | <5 | 34 | 5620 nM | 64% |  |  |  |  |  |  | 
2 | Cc1cc(C(C)N2CC[C@@H](C)[C@H](c3cc(C(F)F)nc4ncnn34)C2)cc(C)n1 (single isomer, unassigned) [Compound 1b, 5-(difluoromethyl)-7-[(3 S,4R)-1-[(1S*)-1-(2,6-dimethyl-4-pyridyl)ethyl]-4-methyl-3-piperidyl]-[1,2,4]triazolo[1,5-a]pyrimidine] |  |  | 11.7 nM | <5 | 19 | 2880 nM |  | 42% | 100 | 80 |  |  |  | 
3 | C[C@@H]1CCN(Cc2cc3ccccc3cn2)C[C@H]1c1cc(C(F)F)nc2ncnn12 [Compound 8] |  | 100% | 8.51 nM | 5.09 | 61 | 1480 nM | 85% | 0% |  |  |  |  |  | 
4 | C[C@@H]1CCN(Cc2cccc(N3CCCCC3)n2)C[C@H]1c1cc(C(F)F)nc2ncnn12 [Compound 17] | 137.52 °C | 100% | 195 nM | <5 | 41 | > 10000 nM | 49% |  |  |  |  |  |  | 
5 | Cc1cc(CN2CCCC(C)(c3cc(C(F)F)nc4ncnn34)C2)cc(Cl)n1 (stereo not drawn) [Compound 28] |  | 16% |  | <5 | 10 |  |  |  |  |  | > 10000 nM | 7.2% | 5620 nM | 
6 | Cc1cc(CN2CC[C@@H](C)[C@H](c3cc(C(F)F)nc4ncnn34)C2)cc(C)n1.Cl [Compound 33] |  | 96% |  | <5 | 8 | 4070 nM | 72% | 37% |  |  |  |  | 22.4 nM | 
7 | C[C@@H]1CCN(Cc2ccc3nccn3c2)C[C@H]1c1cc(C(F)F)nc2ncnn12 [Compound 34] |  | 91% |  | <5 | 18 | 4680 nM | 67% |  |  |  |  |  | 22.9 nM | 0%
8 | Cc1cc(CN2CC[C@@H](C)[C@H](c3cc(C(F)F)nc4ncnn34)C2)cc(C)c1Cl.Cl [Compound 36] |  | 100% |  |  | 43 | 3720 nM | 82% |  |  |  |  |  | 56.2 nM | 0%
9 | FC(F)c1cc(C2CCCN(Cc3cc4ccccc4o3)C2)n2ncnc2n1 (stereo not drawn) [Compound 37] |  | 81% | 200 nM | 5.92 | 88 |  |  |  |  |  | 1050 nM | 50.7% |  | 
